Data taken from ChEMBL document CHEMBL3638862, “Radiolabeled PDE10 inhibitors” (2014).

Target: cAMP and cAMP-inhibited cGMP 3',5'-cyclic phosphodiesterase 10A (Homo sapiens, UniProt Q9Y233)
Test: Florescence Polarization Assay: The activity of the compounds in accordance with the present invention as PDE10 inhibitors may be readily determined without undue experimentation using a fluorescence polarization (FP) methodology well known in the art (Huang, W., et al., J. Biomol Screen, 2002, 7: 215). […] PDE10A2 was amplified from human fetal brain cDNA (Clontech, Mountain View, Calif.) using a forward primer corresponding to nucleotides 56-77 of human PDE10A2 (Accession No. AF127480, Genbank Identifier 4894716), containing a Kozak consensus sequence.

Sequence of cAMP and cAMP-inhibited cGMP 3',5'-cyclic phosphodiesterase 10A (Q9Y233 whole entry): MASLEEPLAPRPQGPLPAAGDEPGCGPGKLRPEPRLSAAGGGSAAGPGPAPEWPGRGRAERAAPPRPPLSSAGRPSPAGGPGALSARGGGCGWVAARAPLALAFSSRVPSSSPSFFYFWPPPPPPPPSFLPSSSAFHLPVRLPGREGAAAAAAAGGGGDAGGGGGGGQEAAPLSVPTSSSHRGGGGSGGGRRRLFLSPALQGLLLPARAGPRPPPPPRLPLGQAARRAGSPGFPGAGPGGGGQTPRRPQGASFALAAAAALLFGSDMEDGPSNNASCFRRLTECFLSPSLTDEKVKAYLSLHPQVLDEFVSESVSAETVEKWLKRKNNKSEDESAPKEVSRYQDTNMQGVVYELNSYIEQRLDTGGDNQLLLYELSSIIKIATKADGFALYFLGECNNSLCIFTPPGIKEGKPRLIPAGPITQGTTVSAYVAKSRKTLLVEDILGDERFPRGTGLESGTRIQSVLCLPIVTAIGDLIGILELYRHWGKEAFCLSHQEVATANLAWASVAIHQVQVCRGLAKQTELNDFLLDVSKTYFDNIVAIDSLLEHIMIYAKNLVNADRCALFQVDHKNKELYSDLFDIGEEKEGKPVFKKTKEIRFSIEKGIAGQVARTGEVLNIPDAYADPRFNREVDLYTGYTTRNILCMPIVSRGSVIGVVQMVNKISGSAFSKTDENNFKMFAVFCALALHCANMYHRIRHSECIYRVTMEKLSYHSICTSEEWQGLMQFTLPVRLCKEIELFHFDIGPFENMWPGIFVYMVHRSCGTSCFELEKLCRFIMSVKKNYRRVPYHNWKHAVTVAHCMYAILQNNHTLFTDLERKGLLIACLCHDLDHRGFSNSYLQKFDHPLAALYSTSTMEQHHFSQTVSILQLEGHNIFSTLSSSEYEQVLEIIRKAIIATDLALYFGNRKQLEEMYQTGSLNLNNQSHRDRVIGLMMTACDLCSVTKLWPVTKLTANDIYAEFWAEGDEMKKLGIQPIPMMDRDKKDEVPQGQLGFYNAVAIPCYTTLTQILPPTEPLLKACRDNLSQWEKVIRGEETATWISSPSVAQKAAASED

Ki: 790 pM
Compound: COc1ccc(-n2c(CCN3C(=O)c4cccc(OCC(F)(F)F)c4C3=O)nc3ccccc3c2=O)cc1
